Assay type in all cases: functional, cell-based
The subject of one test is NCI-H1650. Kind of test: Antiproliferative activity against human NCI-H1650 cells incubated for 48 hrs by MTT assay. Particulars: NCI-H1650, 48 h. Background: Tetrazolium dyes change colour on reduction, which living cells bring about.
In a further test the test system is A2780. As to the kind of experiment: Antiproliferative activity against human A2780 cells incubated for 48 hrs by MTT assay. Particulars: A2780, 48 h.
The test system of another test is HeLa. As to the kind of experiment: Antiproliferative activity against human HeLa cells incubated for 48 hrs by MTT assay.
Another test concerns BGC-823. Kind of test: Antiproliferative activity against human BGC823 cells incubated for 48 hrs by MTT assay. Particulars: BGC-823, 48 h.
The next test deals with A549. Kind of test: Antiproliferative activity against human A549 cells incubated for 48 hrs by MTT assay. Particulars: A549, 48 h.
The next test has as its system HCT-116. As to the kind of experiment: Antiproliferative activity against human HCT116 cells incubated for 48 hrs by MTT assay. Particulars: HCT-116, 48 h.
A further test concerns RKO. Kind of test: Antiproliferative activity against human RKO cells incubated for 48 hrs by MTT assay.

Regarding `COc1cccc(Nc2ccnc3cc(OCc4ccccc4)ccc23)c1`, the IC50 in the test on NCI-H1650, in the test with A2780, with HeLa, in the test with BGC-823, in the test with A549 and in the test with HCT-116 was greater than 10 µM each time. In the test with RKO, the IC50 (in general, the concentration that inhibits the measured activity by half) was greater than 10 µM.
As for `CCCCOc1ccc2c(Nc3cccc(OC)c3)ccnc2c1`, the IC50 is 8.69 µM in the test on NCI-H1650; 8.87 µM with A2780; 6.56 µM in the test with HeLa; 7.26 µM with BGC-823; greater than 10 µM in the test with A549; 7.68 µM in the test on HCT-116. This compound also came in with an IC50 with RKO of 8.1 µM.
`CC(C)Oc1ccc2c(Nc3cccc(F)c3)ccnc2c1`: the IC50 in the test on NCI-H1650 was greater than 10 µM; in the test on A2780 it was 0.59 µM; in the test on HeLa, 0.2 µM; in the test on BGC-823, greater than 10 µM; in the test with A549, greater than 10 µM; with HCT-116, greater than 10 µM. The compound also showed an IC50 in the test on RKO greater than 10 µM.
`Brc1cccc(Nc2ccnc3cc(Br)ccc23)c1`: the IC50 in the test with NCI-H1650, in the test with A2780, with HeLa, in the test with BGC-823, with A549 and in the test on HCT-116 was greater than 10 µM throughout. In addition, in the test with RKO, the IC50 is greater than 10 µM.
With `CCCCCCCCOc1ccc2c(Nc3cccc(OC)c3)ccnc2c1`, the IC50 is 8.13 µM with NCI-H1650; 8.21 µM in the test with A2780; 7.72 µM in the test with HeLa; greater than 10 µM in the test with BGC-823; greater than 10 µM with A549; greater than 10 µM in the test with HCT-116. For the same compound, the IC50 with RKO is greater than 10 µM.
For the compound `Fc1ccc2c(Nc3cccc(Cl)c3)ccnc2c1`, the half-inhibitory concentration (IC50) in the test with NCI-H1650, in the test on A2780, in the test with HeLa, in the test on BGC-823, in the test with A549 and in the test on HCT-116 was greater than 10 µM throughout. In addition, in the test with RKO, the IC50 is greater than 10 µM.
Consider `O=[N+]([O-])c1cccc(Nc2ccnc3cc(OCc4ccccc4)ccc23)c1`, for which the IC50 in the test on NCI-H1650 amounted to 9.54 µM; in the test with A2780 it was 9.19 µM; with HeLa, 5.39 µM; in the test with BGC-823 it was 8.13 µM; in the test with A549, 9.49 µM; in the test on HCT-116 it was 8.76 µM. Moreover, the IC50 with RKO worked out at 9.68 µM.
In the case of `COc1ccc2c(Nc3ccc(Cl)c(Cl)c3)ccnc2c1`, the IC50 in the test with NCI-H1650, in the test on A2780, with HeLa, in the test on BGC-823, in the test with A549 and with HCT-116 was greater than 10 µM each time. The compound also gave an IC50 with RKO greater than 10 µM.
With `O=[N+]([O-])c1cccc(Nc2ccnc3cc(Br)ccc23)c1`, the IC50 in the test with NCI-H1650, in the test with A2780, in the test with HeLa, in the test on BGC-823, in the test on A549 and with HCT-116 was greater than 10 µM each time. The IC50 in the test on RKO is greater than 10 µM.
With `O=[N+]([O-])c1cccc(Nc2ccnc3cc(Cl)ccc23)c1`, the concentration for half-maximal inhibition (IC50) in the test with NCI-H1650, with A2780, with HeLa, in the test with BGC-823, in the test with A549 and in the test on HCT-116 was greater than 10 µM throughout. Besides, the IC50 with RKO is greater than 10 µM.
Regarding `COc1cccc(Nc2ccnc3cc(Br)ccc23)c1`, the IC50 in the test with NCI-H1650, with A2780, in the test on HeLa, with BGC-823, in the test on A549 and in the test on HCT-116 was greater than 10 µM throughout. In the test on RKO, this compound displayed an IC50 greater than 10 µM.
`Clc1cccc(Nc2ccnc3cc(Br)ccc23)c1`: the IC50 in the test on NCI-H1650, in the test with A2780, with HeLa, in the test with BGC-823, in the test on A549 and in the test on HCT-116 was greater than 10 µM each time. The compound also gave an IC50 in the test with RKO greater than 10 µM.
Consider `CC(C)Oc1ccc2c(Nc3cccc([N+](=O)[O-])c3)ccnc2c1`, for which the IC50 in the test with NCI-H1650 is greater than 10 µM; with A2780 it was 1.47 µM; in the test on HeLa, 0.52 µM; in the test on BGC-823, 8.39 µM; with A549, greater than 10 µM; in the test on HCT-116, greater than 10 µM. In addition, in the test with RKO, the IC50 is greater than 10 µM.
Consider `C=CCOc1ccc2c(Nc3cccc(F)c3)ccnc2c1`, for which the IC50 was greater than 10 µM with NCI-H1650; 1.19 µM in the test on A2780; 0.31 µM in the test with HeLa; greater than 10 µM in the test with BGC-823; greater than 10 µM in the test with A549; greater than 10 µM in the test on HCT-116. In the test with RKO, this compound gave an IC50 greater than 10 µM.
With `CCOc1ccc2c(Nc3cccc([N+](=O)[O-])c3)ccnc2c1`, the IC50 in the test with NCI-H1650 was greater than 10 µM; with A2780, greater than 10 µM; with HeLa, 3.42 µM; with BGC-823 it was greater than 10 µM; in the test on A549, greater than 10 µM; in the test with HCT-116, greater than 10 µM. Besides, the IC50 in the test on RKO was greater than 10 µM.
For `CCOc1ccc2c(Nc3cccc(F)c3)ccnc2c1`, the IC50 was greater than 10 µM with NCI-H1650; greater than 10 µM in the test with A2780; 0.68 µM in the test with HeLa; 9.85 µM in the test with BGC-823; greater than 10 µM in the test on A549; greater than 10 µM with HCT-116. The compound also yielded an IC50 in the test with RKO greater than 10 µM.
Turning to `O=[N+]([O-])c1cccc(Nc2ccnc3cc(OCc4ccc(F)cc4)ccc23)c1`, the IC50 in the test on NCI-H1650 worked out at 9.35 µM; in the test on A2780, 6.51 µM; in the test with HeLa, 5.79 µM; with BGC-823 it was 9.45 µM; with A549, 7.3 µM; in the test with HCT-116, 8.17 µM. In addition, half-maximal inhibition in the test on RKO (IC50) required 8.7 µM.
As to `COc1cccc(Nc2ccnc3cc(OC)ccc23)c1`, the IC50 in the test with NCI-H1650, in the test on A2780, with HeLa, in the test on BGC-823, with A549 and in the test on HCT-116 was greater than 10 µM in each case. The compound further registered an IC50 with RKO greater than 10 µM.
Take `COc1ccc2c(Nc3cccc(F)c3)ccnc2c1`: the IC50 in the test with NCI-H1650, in the test with A2780, in the test on HeLa, in the test with BGC-823, in the test on A549 and with HCT-116 was greater than 10 µM each time. Moreover, the IC50 with RKO is greater than 10 µM.
Consider `Fc1cccc(Nc2ccnc3cc(Br)ccc23)c1`, for which the IC50 with NCI-H1650, with A2780, in the test on HeLa, in the test with BGC-823, with A549 and with HCT-116 was greater than 10 µM in each case. In the test on RKO, this compound yielded an IC50 greater than 10 µM.
As for `COc1ccc2c(Nc3cccc([N+](=O)[O-])c3)ccnc2c1`, the IC50 in the test with NCI-H1650 is greater than 10 µM; in the test with A2780, greater than 10 µM; with HeLa, greater than 10 µM; in the test on BGC-823, 7.45 µM; in the test with A549, greater than 10 µM; in the test on HCT-116, greater than 10 µM. The same compound had an IC50 in the test with RKO greater than 10 µM.
Regarding `Fc1ccc(COc2ccc3c(Nc4cccc(F)c4)ccnc3c2)cc1`, the IC50 in the test with NCI-H1650, with A2780, in the test with HeLa, with BGC-823, in the test with A549 and in the test with HCT-116 was greater than 10 µM in each case. In addition, the IC50 with RKO is greater than 10 µM.
Consider `COc1cccc(Nc2ccnc3cc(F)ccc23)c1`, for which the IC50 in the test on NCI-H1650, with A2780, in the test with HeLa, in the test on BGC-823, in the test on A549 and in the test on HCT-116 was greater than 10 µM in each case. Further, the IC50 with RKO was greater than 10 µM.
As to `CCCCOc1ccc2c(Nc3cccc(Br)c3)ccnc2c1`, the IC50 is greater than 10 µM in the test with NCI-H1650; greater than 10 µM in the test with A2780; 0.84 µM with HeLa; greater than 10 µM in the test with BGC-823; greater than 10 µM in the test on A549; greater than 10 µM in the test with HCT-116. In the test on RKO, this compound yielded an IC50 greater than 10 µM.
As for `COc1cccc(Nc2ccnc3cc(Cl)ccc23)c1`, the IC50 in the test on NCI-H1650, in the test on A2780, with HeLa, in the test with BGC-823, in the test on A549 and in the test with HCT-116 was greater than 10 µM throughout. In addition, the IC50 in the test on RKO was greater than 10 µM.
On to `CCCCOc1ccc2c(Nc3cccc([N+](=O)[O-])c3)ccnc2c1`, for which the IC50 is 9.56 µM with NCI-H1650; 5.17 µM in the test with A2780; 4.35 µM with HeLa; 6.11 µM in the test on BGC-823; greater than 10 µM in the test on A549; 6.83 µM in the test on HCT-116. For the same compound, half-maximal inhibition in the test on RKO (IC50) was put at 7.81 µM.
In the case of `O=[N+]([O-])c1cccc(Nc2ccnc3cc(OCCCc4ccccc4)ccc23)c1`, the IC50 in the test with NCI-H1650 came to 6.01 µM; in the test on A2780, 4.46 µM; in the test with HeLa it was 4.13 µM; with BGC-823 it was 8.32 µM; with A549, 5.09 µM; in the test on HCT-116, 7.46 µM. In the test on RKO, this compound showed a 50% inhibitory concentration (IC50) of 8.29 µM.
As to `COc1cccc(Nc2ccnc3cc(OC(C)C)ccc23)c1`, the IC50 in the test with NCI-H1650 was greater than 10 µM; with A2780, 0.65 µM; in the test with HeLa it was 0.23 µM; in the test with BGC-823, 4.73 µM; in the test with A549, greater than 10 µM; in the test on HCT-116, greater than 10 µM. The IC50 with RKO was greater than 10 µM.
Take `Fc1cccc(Nc2ccnc3cc(OCCCc4ccccc4)ccc23)c1`: the IC50 in the test with NCI-H1650 is greater than 10 µM; in the test with A2780, 4.62 µM; in the test on HeLa, 0.25 µM; in the test with BGC-823, greater than 10 µM; in the test on A549, greater than 10 µM; with HCT-116 it was greater than 10 µM. The same compound yielded an IC50 with RKO greater than 10 µM.
Take `COc1ccc2c(Nc3cccc(O)c3)ccnc2c1`: the IC50 with NCI-H1650, in the test with A2780, in the test on HeLa, in the test with BGC-823, in the test on A549 and with HCT-116 was greater than 10 µM in each case. Besides, the IC50 in the test on RKO was greater than 10 µM.

The values are drawn from ChEMBL document CHEMBL4364251, “Design, synthesis and biological evaluation of new quinoline derivatives as potential antitumor agents” (Eur J Med Chem, 2019).
